SMILES strings stand for the structures. Counter-ions that a name gives are not always drawn.

Data on 2 molecules can be found in patent US7994365B2, “Basic acetophenones as inhibitors of NO-synthases” (Christian-Albrechts-Universitaet Zu Kiel, priority 2006, dated 2011).

The target of the test is T1, bNOS (Homo sapiens, UniProt P29475).
T1 construct: purchased Axxora GmbH
Nature of the test: Griess assay: NO-synthase converts L-arginine to L-citrullin and NO, activity measured by nitrite formation. Conditions: maximum inhibition reached; recombinant human isoenzyme, 30 min at 37° C., controls without inhibitor = 100%. The test is classed as biochemical. As for the experimental part: Although the compound is known from the literature Niwa, H., 1957, Tohoku Yakka Daigaku, 4, 69-78), as yet no NOS-inhibiting action has been described.
In both FIGS. 1 and 2 the bNOS activity is measured by means of nitrite formation. Nitrite is the end product of nitrogen monoxide in oxygen-containing, aqueous solution. Control incubations with all the cofactors, but without inhibitor addition, were 100% established. These are mean values +/− standard deviation of three incubations, in each case measured twice.
The incubations of the synthesized substances with the NO-synthases were carried out as follows: […]
Following preparation, the batches were incubated for 20 min (iNOS and eNOS) or 30 min (bNOS) in the shaking water bath at 37° C. […] After incubating for […] at room temperature, the solutions were measured at a wavelength of 543 nm and the indicated non-enzyme-containing sample was used as the blank reading. […] The nitrite can be quantitatively determined by reaction with sulphanilamide and naphthyl ethylene diamine in an acid medium. This leads to an azo dye, which can be measured spectrophotometrically. […] The relative nitrite formations were determined for the control batches containing no inhibitors. […]
For orientation: The Griess reaction detects nitrite, a stable product of nitric oxide.

T1 sequence (P29475 whole entry): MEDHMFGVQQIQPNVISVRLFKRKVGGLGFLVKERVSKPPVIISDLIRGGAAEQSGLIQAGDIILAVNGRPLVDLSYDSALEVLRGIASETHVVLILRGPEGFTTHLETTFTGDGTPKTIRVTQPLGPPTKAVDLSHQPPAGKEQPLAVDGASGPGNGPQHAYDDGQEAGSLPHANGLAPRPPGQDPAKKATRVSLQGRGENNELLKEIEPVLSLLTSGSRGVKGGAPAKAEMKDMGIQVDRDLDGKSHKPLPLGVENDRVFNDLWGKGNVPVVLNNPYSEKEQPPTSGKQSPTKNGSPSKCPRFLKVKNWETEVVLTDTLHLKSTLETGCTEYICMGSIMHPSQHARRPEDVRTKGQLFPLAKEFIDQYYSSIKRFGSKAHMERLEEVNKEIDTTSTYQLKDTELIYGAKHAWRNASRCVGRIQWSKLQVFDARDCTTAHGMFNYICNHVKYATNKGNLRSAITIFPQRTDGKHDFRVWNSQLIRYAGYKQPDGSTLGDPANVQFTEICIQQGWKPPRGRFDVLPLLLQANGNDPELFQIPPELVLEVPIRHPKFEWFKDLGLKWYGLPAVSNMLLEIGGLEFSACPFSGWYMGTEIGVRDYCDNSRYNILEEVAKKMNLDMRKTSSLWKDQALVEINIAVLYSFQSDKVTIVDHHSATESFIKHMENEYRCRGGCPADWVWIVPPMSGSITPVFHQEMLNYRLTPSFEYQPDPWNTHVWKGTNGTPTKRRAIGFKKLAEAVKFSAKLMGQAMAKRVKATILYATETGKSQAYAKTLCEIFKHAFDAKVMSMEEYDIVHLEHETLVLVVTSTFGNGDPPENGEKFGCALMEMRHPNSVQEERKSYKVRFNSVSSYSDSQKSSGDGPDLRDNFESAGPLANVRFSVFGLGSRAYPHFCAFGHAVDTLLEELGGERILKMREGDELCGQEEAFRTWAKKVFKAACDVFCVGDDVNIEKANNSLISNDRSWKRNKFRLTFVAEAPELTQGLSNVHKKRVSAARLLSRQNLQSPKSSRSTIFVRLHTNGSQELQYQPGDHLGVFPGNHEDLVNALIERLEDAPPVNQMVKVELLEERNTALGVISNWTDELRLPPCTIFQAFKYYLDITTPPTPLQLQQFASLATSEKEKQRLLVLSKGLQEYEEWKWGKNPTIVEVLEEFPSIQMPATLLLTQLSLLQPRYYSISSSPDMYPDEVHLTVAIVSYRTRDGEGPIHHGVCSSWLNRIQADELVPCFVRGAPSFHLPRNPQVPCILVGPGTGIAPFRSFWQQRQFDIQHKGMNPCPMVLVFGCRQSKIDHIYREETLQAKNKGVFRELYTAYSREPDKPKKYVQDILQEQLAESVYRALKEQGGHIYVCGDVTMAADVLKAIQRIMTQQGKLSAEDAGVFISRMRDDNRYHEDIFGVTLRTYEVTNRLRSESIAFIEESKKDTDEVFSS

Take `CN(C)CCC(=O)c1ccc(-c2ccc(Br)cc2)cc1` [4′-(4-bromophenyl)-3-dimethylaminopropiophenone hydrochloride]: the “concentration-dependent inhibition of bNOS” value is given as “up to 88%”.
Regarding `CN(C)CCCC(=O)c1ccc(-c2ccc(Br)cc2)cc1` [4′-(4-bromophenyl)-4-dimethylaminobutyrophenone hydrochloride], the “concentration-dependent inhibition of bNOS” value is listed as “up to 99%”.
